Source: patent publication US20130079370A1, “Method for the Inhibition of Deubiquitinating Activity” (priority 2011, published 2013)

Assays:
[1] = system: HCT116 cells; assay type: cell-based; settings: human
From the text: These findings indicate that high molecular weight ubiquitin substrate complexes accumulating as a result of DUB inhibition can generate strong cytotoxicity that is insensitive to Bcl-2 over-expression. [table]

[2] = system: isogenic clones of HCT116 colon cancer cells; settings: literature refs (11, 12); cited from earlier work

For `CC(C)C[C@H](NC(=O)[C@H](Cc1ccccc1)NC(=O)c1cnccn1)B(O)O` [bortezomib, reference compound], which “Fold induction DNAJB1 (Hsp40B1)” value [1] is on record?
The value was 5 fold.

What about the “Fold induction HSPA1B” value [1] of the same molecule?
Its value is 12 fold.

And the “Fold induction HSPA6 (Hsp70B′)” value [1]?
Its value is 60 fold.

What about the “sensitivity of apoptosis induction to apoptosis regulators” value [2] of the same molecule?
The value was “sensitive to the status of the p53 tumor suppressor and over-expression of the anti-apoptotic Bcl-2 oncoprotein”.
